Measurements: the NIST ThermoML archive (doi:10.1016/j.jct.2017.03.033)
Numbers after ± are expanded uncertainties.

Experiment: molar heat capacity at constant pressure
Conditions: Liquid, Flow calorimetry

CC(C)C [2-methylpropane]
Conditions | molar heat capacity at constant pressure [J/K/mol]
303.53 K, 1050 kPa | 142.52 ± 2.8
303.55 K, 1540 kPa | 141.88 ± 2.8
303.56 K, 2000 kPa | 141.53 ± 2.8
303.56 K, 3020 kPa | 140.13 ± 2.8
303.57 K, 2500 kPa | 140.83 ± 2.8
303.59 K, 9990 kPa | 135.77 ± 2.7
303.62 K, 4030 kPa | 139.55 ± 2.8
303.62 K, 4500 kPa | 139.32 ± 2.8
303.62 K, 6500 kPa | 138.1 ± 2.8
303.62 K, 7990 kPa | 136.88 ± 2.7
303.63 K, 6010 kPa | 138.45 ± 2.8
303.63 K, 7030 kPa | 137.69 ± 2.8
303.63 K, 7530 kPa | 137.34 ± 2.7
303.63 K, 8510 kPa | 136.7 ± 2.7
303.63 K, 9510 kPa | 136.24 ± 2.7
303.64 K, 5000 kPa | 139.03 ± 2.8
303.64 K, 9000 kPa | 136.47 ± 2.7
303.65 K, 5520 kPa | 138.8 ± 2.8
303.7 K, 3480 kPa | 139.78 ± 2.8
303.82 K, 11510 kPa | 134.38 ± 2.7
303.82 K, 12000 kPa | 134.2 ± 2.7
303.86 K, 10530 kPa | 135.37 ± 2.7
303.86 K, 11040 kPa | 134.96 ± 2.7
313.48 K, 1040 kPa | 142.81 ± 2.8
313.48 K, 6480 kPa | 138.39 ± 2.8
313.49 K, 3020 kPa | 141.12 ± 2.8
313.49 K, 7500 kPa | 138.1 ± 2.8
313.5 K, 5530 kPa | 139.09 ± 2.8
313.5 K, 6030 kPa | 138.56 ± 2.8
313.5 K, 7030 kPa | 138.27 ± 2.8
313.5 K, 8040 kPa | 137.81 ± 2.8
313.5 K, 8480 kPa | 137.69 ± 2.8
313.51 K, 1540 kPa | 142.46 ± 2.8
313.51 K, 2020 kPa | 141.93 ± 2.8
313.51 K, 2540 kPa | 141.53 ± 2.8
313.51 K, 4010 kPa | 140.6 ± 2.8
313.51 K, 9020 kPa | 137.52 ± 2.7
313.52 K, 4500 kPa | 140.07 ± 2.8
313.52 K, 9480 kPa | 137.34 ± 2.7
313.52 K, 10060 kPa | 137.28 ± 2.7
313.54 K, 5080 kPa | 139.26 ± 2.8
313.55 K, 10530 kPa | 136.59 ± 2.7
313.57 K, 11480 kPa | 136.3 ± 2.7
313.57 K, 12050 kPa | 136.12 ± 2.7
313.58 K, 3550 kPa | 140.95 ± 2.8
313.58 K, 11070 kPa | 136.47 ± 2.7
323.11 K, 1040 kPa | 146.53 ± 3
323.16 K, 1510 kPa | 146.24 ± 2.9
323.22 K, 2020 kPa | 145.77 ± 2.9
323.23 K, 3510 kPa | 144.03 ± 2.9
323.24 K, 2540 kPa | 145.01 ± 2.9
323.25 K, 3020 kPa | 144.49 ± 2.9
323.25 K, 4020 kPa | 143.62 ± 2.9
323.27 K, 10500 kPa | 139.49 ± 2.8
323.28 K, 4550 kPa | 143.33 ± 2.8
323.28 K, 10980 kPa | 139.44 ± 2.8
323.3 K, 4970 kPa | 143.04 ± 2.8
323.31 K, 11540 kPa | 139.38 ± 2.8
323.32 K, 5500 kPa | 142.69 ± 2.8
323.32 K, 5980 kPa | 142.17 ± 2.8
323.33 K, 6470 kPa | 141.7 ± 2.8
323.33 K, 7020 kPa | 141.3 ± 2.8
323.34 K, 11990 kPa | 139.2 ± 2.8
323.35 K, 7470 kPa | 141.24 ± 2.8
323.37 K, 7990 kPa | 141 ± 2.8
323.37 K, 9480 kPa | 140.07 ± 2.8
323.38 K, 8510 kPa | 140.77 ± 2.8
323.38 K, 9990 kPa | 139.67 ± 2.8
323.39 K, 9000 kPa | 140.42 ± 2.8
333.64 K, 1050 kPa | 151.06 ± 3
333.65 K, 10550 kPa | 143.33 ± 2.8
333.65 K, 10920 kPa | 143.21 ± 2.8
333.66 K, 5960 kPa | 145.65 ± 2.9
333.66 K, 11520 kPa | 143.15 ± 2.8
333.67 K, 4020 kPa | 147.05 ± 3
333.67 K, 4480 kPa | 146.76 ± 3
333.67 K, 9460 kPa | 143.5 ± 2.9
333.67 K, 11930 kPa | 143.15 ± 2.8
333.68 K, 10010 kPa | 143.62 ± 2.9
333.69 K, 1530 kPa | 150.48 ± 3
333.69 K, 5010 kPa | 146.41 ± 3
333.69 K, 7030 kPa | 145.31 ± 2.9
333.7 K, 5530 kPa | 146.12 ± 2.9
333.7 K, 6520 kPa | 145.54 ± 2.9
333.71 K, 3530 kPa | 147.63 ± 3
333.71 K, 8510 kPa | 144.43 ± 2.9
333.72 K, 2020 kPa | 149.84 ± 3
333.72 K, 2520 kPa | 149.2 ± 3
333.72 K, 8970 kPa | 144.38 ± 2.9
333.73 K, 3050 kPa | 148.79 ± 3
333.73 K, 7550 kPa | 145.13 ± 2.9
333.74 K, 8040 kPa | 145.13 ± 2.9
343.71 K, 1520 kPa | 159.49 ± 3.2
343.76 K, 2030 kPa | 157.92 ± 3.1
343.79 K, 3510 kPa | 155.13 ± 3.1
343.81 K, 2530 kPa | 157.34 ± 3.1
343.81 K, 3030 kPa | 155.65 ± 3.1
343.83 K, 4010 kPa | 154.02 ± 3.1
343.84 K, 5010 kPa | 153.09 ± 3.1
343.85 K, 4530 kPa | 153.62 ± 3.1
343.85 K, 6000 kPa | 151.06 ± 3
343.85 K, 7500 kPa | 149.49 ± 3
343.85 K, 8000 kPa | 148.27 ± 3
343.85 K, 8500 kPa | 147.98 ± 3
343.85 K, 10990 kPa | 145.77 ± 2.9
343.85 K, 12010 kPa | 145.07 ± 2.9
343.86 K, 5490 kPa | 151.93 ± 3
343.86 K, 6530 kPa | 150.36 ± 3
343.86 K, 10020 kPa | 146.82 ± 3
343.86 K, 11480 kPa | 145.48 ± 2.9
343.87 K, 9000 kPa | 147.51 ± 3
343.87 K, 10510 kPa | 146.47 ± 3
343.88 K, 7020 kPa | 150.07 ± 3
343.88 K, 9490 kPa | 147.4 ± 3
353.82 K, 2510 kPa | 163.9 ± 3.3
353.85 K, 3020 kPa | 162.57 ± 3.3
353.85 K, 9000 kPa | 152.16 ± 3.1
353.85 K, 9500 kPa | 151.7 ± 3
353.86 K, 4510 kPa | 158.62 ± 3.2
353.87 K, 4990 kPa | 158.09 ± 3.2
353.87 K, 6010 kPa | 156.06 ± 3.1
353.87 K, 7000 kPa | 153.97 ± 3.1
353.87 K, 8520 kPa | 152.22 ± 3.1
353.87 K, 10000 kPa | 151.35 ± 3
353.87 K, 10510 kPa | 151 ± 3
